Values after ≈ are worked out from the molar mass of the structure shown. Values joined by “and” are separate entries in the source; they are usually repeats but may differ in a detail not shown here. Identical values can stand only once.
Tests used:
[1] = PAHs aqueous solubility in the absence of CD; settings: 25 °C, water, thermodynamic from solid
[2] = Phase solubility studies (Higuchi and Connors) with RAMEB; settings: for Apparent stability constant Kc: RAMEB 0 to 0.1 M, 1:1 complex, 25°C; for solubility at 1 week: 25 °C, aqueous with cosolvent or surfactant or cyclodextrin, thermodynamic from solid
[3] = Phase solubility studies (Higuchi and Connors) with HP-β-CD; settings: for Apparent stability constant Kc: HP-β-CD 0 to 0.1 M, 1:1 complex, 25°C
[4] = Phase solubility studies (Higuchi and Connors) with HP-γ-CD; settings: HP-γ-CD 0 to 0.1 M; 1:1 complex; 25°C
[5] = Phase solubility studies: comparison of the six PAHs across the three CDs; settings: for Decreasing order of Se and Kc: per CD; for Decreasing order of PAHs apparent solubility: reached with 0.1 M of the CD
physchem [6] = settings: 25 °C, aqueous with cosolvent or surfactant or cyclodextrin, thermodynamic from solid
physchem [7] = settings: 25 °C, water, thermodynamic from solid
[8] = ref [40], cited from earlier work
[9] = 1 week

Decreasing order of Se and Kc [5] | Molecule | solubility at 1 week [1] | Apparent stability constant Kc [2] | Apparent stability constant Kc [3] | Apparent stability constant Kc [4] | further results
 | c1cc2c3c(cccc3c1)CC2 [ACE, acenaphthene] | 1.93 µg/mL (≈ 12.5 µM) | 644 (±12) M^−1 | 661 (±35) M^−1 | 758 (±41) M^−1 | solubility at 1 week ([5]; 25 °C, aqueous with cosolvent or surfactant or cyclodextrin, thermodynamic from solid): 125 to 147 µg/mL (≈ 811 to 953 µM)
PYR>ACE>FLT>PHE>ANT>FLU | hydroxypropyl-γ-CD [HP-γ-CD] |  |  |  |  | 
 | c1ccc2c(c1)-c1cccc3cccc-2c13 [FLT, fluoranthene] |  |  |  |  | solubility (physchem [6]): ≤ 101 µg/mL; solubility (physchem [7]): 0.26 µg/mL (≈ 1.29 µM)
 | c1cc2ccc3cccc4ccc(c1)c2c34 [PYR, pyrene] |  |  |  |  | Kc with natural γ-CD ([8]; natural γ-CD, [41]): 250 to 300 M⁻¹
ANT>PHE>FLT>FLU>ACE>PYR | randomly methylated-β-CD [RAMEB] |  |  |  |  | Decreasing order of PAHs apparent solubility [5]: FLU≥PHE>ACE>FLT>ANT>PYR
 | c1ccc2c(c1)Cc1ccccc1-2 [FLU, fluorene] |  | 2906 (±164) M^−1 |  |  | PAHs aqueous solubility (S) [9]: 1.90 mg/L; solubility at 1 week ([2]; aqueous RAMEB solution): ≤ 574 µg/mL
 | c1ccc2cc3ccccc3cc2c1 [ANT, anthracene] | 0.076 µg/mL (≈ 0.426 µM) | 5399 (±52) M^−1 | 3284 (±204) M^−1 | 234 M^−1 and 234 (±35) M^−1 | Kc with γ-CD ([8]; γ-CD, [42]): 240 to 330 M⁻¹; solubility at 1 week [2]: ≤ 41 µg/mL; Kc value relative to the lowest one (PYR) ([2]; RAMEB complexes): about 10 fold
PHE>ANT>FLT>FLU>PYR>ACE | 2-Hydroxypropyl-β-CD [HP-β-CD] |  |  |  |  | Decreasing order of PAHs apparent solubility [5]: PHE≥FLU>ACE>FLT>ANT>PYR
 | c1ccc2c(c1)ccc1ccccc12 [PHE, phenanthrene] | 1.2 µg/mL (≈ 6.73 µM) | 4925 (±511) M^−1 | 3871 (±322) M^−1 | 447 (±17) M^−1 | solubility at 1 week ([2]; aqueous RAMEB solution): ≤ 572 µg/mL; Kc value relative to that for ACE ([3]; HP-β-CD complexes): ~6 fold
